{"source": "patent US8420594B2", "about": "“Inhibitors of MRP4 and agents stimulating MRP4 activity for the treatment of cardiac disorders” (INSERM (Institute de la Sante et de la Recherche Medicale), priority 2008, dated 2013)", "key": {"[1]": {"test_system": "PDE3", "quoted_text": "Cardiac ventricular myocytes were enzymatically dissociated using standard procedures (Fauconnier, J. et al. Diabetes, 2007). Briefly, mice were euthanized by cervical dislocation, the heart rapidly excised and retrogradely perfused at 37° C. for 6-8 min with a modified tyrode solution (in mM: NaCl113, KCL 4.7, KH2PO4 0.6, Na2HPO4 0.6, MgSO4 1.2, NaHCO3 12, KHCO3 10, HEPES10 Taurine 30, pH=7.4) containing 1 mg.ml-1 of liberase (Roche, France). Isolated myocytes were then transferred to the same solution, free of enzyme, containing 1 mM CaCl2.\nCells were loaded for 30 min at RT with Fluo-4 AM (5 μmol/l, Molecular Probes). Cells were then field-stimulated at 1 Hz with a 1-2 ms current pulse delivered via two platinum electrodes, one on each side of the perfusion chamber. Changes in Fluo-4 fluorescence were recorded using an LSM510 Meta Zeiss confocal microscope equipped with a 63× water immersion objective (NA: 1.2). Measurements were performed in line-scan mode (1.5 ms/line) and scanning was carried out along the long axis of the cell. An excitation wavelength of 488 nm was used, and emitted light was collected through a 505 nm long pass filter. The laser intensity used (3-6% of the maximum) had no noticeable deleterious effect on the fluorescence signal or on cell function over the time-course of the experiment. To enable comparisons between cells, the change in fluorescence (ΔF) was divided by the fluorescence detected immediately before the 0.5 Hz stimulation pulse (F0)."}, "[2]": {"test_system": "PDE3", "remark": "listed apart in the source", "quoted_text": "Briefly, mice were euthanized by cervical dislocation, the heart rapidly excised and retrogradely perfused at 37° C. for 6-8 min with a modified tyrode solution (in mM: NaCl113, KCL 4.7, KH2PO4 0.6, Na2HPO4 0.6, MgSO4 1.2, NaHCO3 12, KHCO3 10, HEPES10 Taurine 30, pH=7.4) containing 1 mg.ml-1 of liberase (Roche, France). Isolated myocytes were then transferred to the same solution, free of enzyme, containing 1 mM CaCl2.\nIn addition, we have measured the effect of PDE3 inhibition by cilostamide on the contractility of ventricular myocytes isolated from WT and MRP4 KO mice."}, "[3]": {"test_system": "β-adrenergic system", "assay": "Chronic β-adrenergic stimulation, isoproterenol-induced cardiac hypertrophy", "format": "in vivo", "details": "20 μg/g/day for 2 weeks by miniosmotic pumps, 3 month-old MRP4 KO vs WT mice", "description": "Animal models. MRP4 ablated mice (MRP4 KO) were generated and genotyped as described (Leggas, M. et al. Mol Cell Biol 24, 7612-21 (2004). Wild-type and homozygous MRP4-KO mice (8-10 weeks of age) were subjected to left ventricular pressure overload by transverse aortic constriction (TAC), as previously described (Rockman, et al. Proc Natl Acad Sci USA 88, 8277-81 (1991). Five weeks after the procedure, the animals were sacrified and heart and body weights were determined. As a model of β-adenergic overstimulation miniosmotic pumps (Alzet) containing (−)-isoproterenol-bitartrate (Sigma Aldrich) (delivering 20 μg/g/day each) were implanted subcutaneously into 10-12 weeks old animals. Determination of heart weights and analysis of gene expression were carried out after 14 days of continuous infusion. Finally, male MRP4 KO mice and WT littermate were subjected to voluntary exercise. The animals were 10-12 weeks at the start of the study. Individual animals were housed in a cage with free access to a 11.5-cm-diameter running wheel with a 5.0-cm-wide running surface equipped with a digital magnetic counter (model BC 1200, Sigma Sport) that is activated by wheel rotation. Daily exercise values for time and distance run were recorded for each exercised animal throughout the duration of the exercise period. […]"}, "[4]": {"test_system": "PDE3", "assay": "Chronotropic effect of PDE3 inhibitor, telemetric ECG (RR interval) in WT and MRP4 KO mice", "format": "in vivo", "details": "for heart rate: wild-type mice", "description": "Animal models. MRP4 ablated mice (MRP4 KO) were generated and genotyped as described (Leggas, M. et al. Mol Cell Biol 24, 7612-21 (2004). Wild-type and homozygous MRP4-KO mice (8-10 weeks of age) were subjected to left ventricular pressure overload by transverse aortic constriction (TAC), as previously described (Rockman, et al. Proc Natl Acad Sci USA 88, 8277-81 (1991). Five weeks after the procedure, the animals were sacrified and heart and body weights were determined. As a model of β-adenergic overstimulation miniosmotic pumps (Alzet) containing (−)-isoproterenol-bitartrate (Sigma Aldrich) (delivering 20 μg/g/day each) were implanted subcutaneously into 10-12 weeks old animals. Determination of heart weights and analysis of gene expression were carried out after 14 days of continuous infusion. Finally, male MRP4 KO mice and WT littermate were subjected to voluntary exercise. The animals were 10-12 weeks at the start of the study. Individual animals were housed in a cage with free access to a 11.5-cm-diameter running wheel with a 5.0-cm-wide running surface equipped with a digital magnetic counter (model BC 1200, Sigma Sport) that is activated by wheel rotation. Daily exercise values for time and distance run were recorded for each exercised animal throughout the duration of the exercise period.\nTelemetry studies. Long-term telemetric ambulatory ECG measurements were performed in wild type and knock out male mice at 3 months of age. Six-lead restrained ECG monitoring of conscious animals (hamsters and mice) were performed with EasyCG® tools system (EMKA technologies, France) formed by the four sensors of ecgTUNNEL® system platform and a translucent animal sizefitting half-tunnel. Each animal was put inside the tunnel, which was then closed, assuring the animal to be properly restrained. The four wires of the platform were connected to a wireless transmitter and amplifier system (emkaPACK®, EMKA technologies). Telemetric ECG tracing were obtained in conscious mice during quiet awake time at daytime. To minimize the effects of stress, animals were allowed to stay in the restraining system for 5 min before starting ECG recordings. […] Six leads of ECG were recorded during 15 to 20 min using specific software (iox®, EMKA technologies): three leads were measured (L1, L2, L3), and three were calculated (aVR, aVL, aVF). Dedicated software (Ecg-auto®, EMKA technologies) was used to measure RR interval, SDNN and HRV index. If needed, raw data were submitted to a 50-Hz notch filter with an automatic setting determined by the software."}}, "note": "Read-outs that look alike come from different tables or passages of the source.", "data": [{"smiles": "CN(C(=O)CCCOc1ccc2[nH]c(=O)ccc2c1)C1CCCCC1", "note": "[Cilostamide]", "values": [{"measurement": "Ca2+ transient amplitude (ΔF/F0)", "setting": "[1]; MRP4 KO mice myocytes", "value": "increased"}, {"measurement": "Ca2+ transient half width", "setting": "[1]; MRP4 KO mice myocytes", "value": "decreased"}, {"measurement": "Ca2+ transient rate of decay t", "setting": "[1]; MRP4 KO mice myocytes", "value": "decreased"}, {"measurement": "Ca2+ transient rate of rise (ΔF/F0.ms−1)", "setting": "[1]; MRP4 KO mice myocytes", "value": "decreased"}, {"measurement": "Ca2+ transient", "setting": "[1]; myocytes isolated from WT heart", "value": "no effect"}, {"measurement": "contractility increase, MRP4 KO vs WT", "setting": "[2]; MRP4 KO compared to WT", "value": "significantly more"}, {"measurement": "contractility of ventricular myocytes", "setting": "[2]; MRP4 KO mice myocytes", "value": "increased"}, {"measurement": "contractility of ventricular myocytes", "setting": "[2]; WT mice myocytes", "value": "increased"}]}, {"smiles": "CC(C)NC[C@H](O)c1ccc(O)c(O)c1", "note": "[Isoproterenol, (−)-isoproterenol-bitartrate]", "values": [{"measurement": "cardiac hypertrophy (HW/TL ratio)", "setting": "[3]", "value": "significantly more important"}]}, {"smiles": "Cc1[nH]c(=O)c(C#N)cc1-c1ccncc1", "note": "[Milrinone]", "values": [{"measurement": "RR interval", "setting": "[4]; 0.1 mg/kg, MRP4 KO mice", "value": "significant decrease"}, {"measurement": "heart rate", "setting": "[4]; 0.1 mg/kg", "value": "not changing heart rate"}, {"measurement": "decrease in RR interval", "setting": "[4]; 1 mg/kg, MRP4 KO mice compared to wild-type mice", "value": "significantly higher"}, {"measurement": "heart rate", "setting": "[4]; 1 mg/kg", "value": "acceleration of heart rate"}, {"measurement": "chronotropic dose-effect", "setting": "[4]; MRP4 KO mice compared to wild-type", "value": "dramatically enhanced"}]}]}
